# Tests used:
# [1] = system: Cox-2 mRNA; assay: Cox-2 mRNA in isolated spinal cord slice in vitro; assay type: cell-based, rat; conditions: 10 ng/ml; after three hours
# Method: Two mechanisms may contribute to central Cox-2 induction in response to peripheral inflammation: 1) sensory inflow from nerve fibers innervating the inflamed hindpaw or 2) circulating pro-inflammatory cytokines. To determine whether primary sensory neuron activity increases central Cox-2, an isolated adult rat spinal cord slice preparation with an attached dorsal root was analyzed (FIG. 5A). To prepare this spinal cord slice, the lumbar spinal cord from an adult rat under urethane anesthesia was removed and immersed in cold Kreb's solution. A 700-μm-thick transverse slice with attached L4 dorsal root (15-20 mm) was prepared and perfused with Kreb's solution saturated with 95% O2 and 5% CO2 at 36-37° C. (Baba et al., J Neurosci 19:859, 1999). The L4 dorsal root was electrically stimulated for 30 minutes using a suction electrode at 20 μA (0.05 ms, 50 Hz) for Aβ-fibers, 100 μA (0.05 ms, 50 Hz) for […] 1000 μA (0.5 ms, 50 Hz) for C-fibers. The slices were perfused with Kreb's solution for two hours before electrical stimulation, and for three hours after stimulation.
# [2] = system: Cox-2 mRNA; assay: Cox-2 mRNA in spinal cord and DRG after IL-1β administration in vivo; parameters: species or system rat; conditions: for upregulation of Cox-2 mRNA in the spinal cord: five hours later
# Method: (§1) To determine whether IL-1β induces central Cox-2, rats were subjected to intravenous or intrathecal administration of this cytokine, and Cox-2 mRNA levels in the lumbar spinal cord were assessed five hours later. […] IL-1β also induces Cox-2 expression in dorsal root ganglion neurons (“DRG”), which are primary sensory neurons, both in vivo after intrathecal IL-1β administration and in vitro in primary neuronal cultures. […] For this analysis, Cox-2 mRNA levels were monitored using an RNase protection assay, and protein expression was visualized by immunohistochemistry, as described herein (FIG. 10).
# [3] = system: Cox-2 mRNA; assay: Cox-2 mRNA induction by IL-1β in primary DRG neuron cultures; assay type: cell-based, rat; conditions: 1 or 10 ng/ml
# Method: as §1
# To measure the contribution of p38, ERK, and NFκ-B to IL-1β-mediated induction of Cox-2 mRNA and protein levels, specific inhibitors for each of these factors were used. p38 and ERK inhibitors each decreased the induction by IL-1β of Cox-2 mRNA in the primary DRG neuron cultures by 30% (FIG. 10).
# [4] = system: PGE2; assay: Central PGE2 levels after intrathecal IL-1β; assay type: in vivo, rat; conditions: intrathecal 5 ng
# Method: To visualize the induction of Cox-2 protein in dorsal horns after peripheral inflammation, immunohistochemistry was performed on transverse spinal cord sections (20 μm) using a Cox-2 antibody (Santa Cruz) and a neuronal marker, the NeuN antibody (Chemicon), as described previously (Amay et al., Mol. Cell Neurosci. 15:331-342, 2000). In situ hybridization was performed using a digoxygenin-labeled riboprobe to visualize the induction of Cox-2 mRNA (Mannion et al., Proc. Natl. Acad. Sci. U. S. A. 96:9385, 1999). Low basal levels of Cox-2 mRNA and protein were present in dorsal horn neurons with a substantial upregulation six and 12 hours post-inflammation (FIGS. 2A-2D and 3). To determine whether this induction of Cox-2 was correlated with an increase in PGE2 levels, a 100-200 μl sample of cerebrospinal fluid was withdrawn from the cisterna magna of anaesthetized rats using a 27 G needle, and PGE2 levels were analyzed using a PGE2 enzyme-immunoassay according to the manufacturer's protocol (Amersham Pharmacia Biotech). […]
# To determine whether IL-1β induces central Cox-2, rats were subjected to intravenous or intrathecal administration of this cytokine, and Cox-2 mRNA levels in the lumbar spinal cord were assessed five hours later. […]
# [5] = system: p38 and ERK; assay: MAP kinase phosphorylation in primary DRG neuron cultures; assay type: cell-based, rat; conditions: 10 ng/ml; 30 minutes
# Method: To investigate the intracellular signaling pathway that leads to the increase in Cox-2 mRNA in the DRG neurons following treatment with IL-1β, the activation of the NFκ-B transcription factor and members of the MAP kinase family in primary DRG neurons was studied. […] Phosphorylated p38 and ERK were visualized by standard Western blot analysis and immunohistochemistry 30 minutes after administration of 10 ng/ml IL-1β to the culture medium (FIG. 12).
# After CFA-induced inflammation, NGF is produced in the inflamed paw tissue and is retrogradely transported to the cell body of DRG neurons. NGF is critical for gene expression in DRG neurons and plays a major role in inflammatory pain (Lindsay et al., Nature 337: 362-364, 1989; and Woolf et al., Neuroscience 62:327-331, 1994). […] To determine whether NGF is required for the inflammation-induced activation of p38 and upregulation of VR1, NGF antiserum (i.p., 5 μl/g body weight, 84 mg/ml) was injected to neutralize endogenous NGF. […] Intrathecal injection of NGF (2 μg in 10 μl, twice a day for three days, Boeringer) increased both p-p38 levels and VR1 levels in DRG neurons. […] To test whether NGF acts via p38 to upregulate VR1, the p38 inhibitor SB203580 (1 μg) was co-administrated with NGF (twice a day for three days).
# [6] = system: CFA-induced inflammatory pain in rats
# Text: For these studies, animals were habituated to the testing environment daily for two days before baseline testing. Except for the heat test, all the animals were placed on an elevated wire grid. For mechanical allodynia, the plantar surface of the hindpaw was stimulated with a series of von Frey hairs. The threshold was taken as the lowest force that evoked a brisk withdrawal response. For heat hyperalgesia, the plantar surface of a hindpaw was exposed to a beam of radiant heat through a transparent Perspex surface (Hargreaves et al., Pain 32:77-88, 1988). The withdrawal latency was recorded, with a maximum 15 seconds as cutoff. The withdrawal latency was averaged over three trials.
# To examine the functional consequences of ERK activation and its downstream effects on prodynorphin and NK-1 upregulation, we determined whether inhibition of ERK activation modified inflammatory pain hypersensitivity.
# ERK activation by CFA may contribute to inflammatory pain hypersensitivity either by maintaining ongoing post-translational changes or by inducing transcription of genes such as NK1 and prodynorphin. In the former case, blocking ERK activation in established inflammation would be expected to reduce the pain hypersensitivity within tens of minutes due to dephosphorylation of ERK substrates. If the contribution of ERK activation were through transcription, inhibiting ERK activation would be expected to have no immediate effect, but have a delayed effect. To distinguish between these two possible mechanisms, U0126 was intrathecally injected (1 μg) into rats with established inflammation (24 hours after CFA injection) and tested pain hypersensitivity 30 minutes, 6 hours, and 24 hours after the injection of U0126.
# [7] = system: NK-1; conditions: 1 μg intrathecal 30 minutes before and 6 hours after CFA; 24 hours
# Method: The data are represented as mean+SEM.
# To explore whether ERK activation is involved in NK-1 upregulation, the MEK inhibitor U0126 was delivered intrathecally before the induction of inflammation via an osmotic pump (0.5 μg/ul/hr for 2 days). In particular, an Alzet osmotic pump (three days pump, 1 μl/hr) was filled with the MEK-inhibitor U0126 (0.5 μg/μl) in 50% DMSO, and the catheter of the pump implanted intrathecally at least three hours before CFA injection. DMSO (50%) was used as vehicle control.
# [8] = system: prodynorphin mRNA; conditions: 2×1 μg intrathecal; 24 hours after CFA
# Text: To investigate changes in the expression of prodynorphin in response to inflammation, an RNase protection assay, in situ hybridization, and immunohistochemistry were used. […] Differences between groups were compared using student the t-test or ANOVA, followed by Fisher's PLSD. For non-parametric data, the Mann-Whittney U test was applied.
# For the in situ hybridization analysis, animals were rapidly sacrificed in a CO2 chamber, and L4-L5 spinal cord segments were removed and cut on a cryostat at a thickness of 20 μm. […] An antinsense RNA probe, and the corresponding sense control probe, were labeled by in vitro transcription using linearized DNA templates for prodynorphin and dig labeling mixture for two hours at 37° C. […] Tissue Sections were air dried for two hours, fixed in 4% paraformaldehyde for 15 minutes, and acetylated in acetic anhydride (0.25%) for 10 minutes. Sections were pre-hybridized for two hours at room temperature, then incubated in hybridization buffer overnight at 60° C. […] Eight non-adjacent sections from the L4-L5 lumbar spinal cord were randomly selected, and the numbers of mRNA-positive neuronal profiles in the superficial laminae and/or deep laminae of the dorsal horn in each section were counted (under a 20× object field) by an observer blind to the treatment. […]
# [9] = non-inflamed animals, 1 μg intrathecal, 30 minutes after administration
Molecule,Cox-2 mRNA expression in the spinal cord in vitro [1],upregulation of Cox-2 mRNA in the spinal cord ([2]; intrathecal 5 ng),upregulation of Cox-2 mRNA in the spinal cord ([2]; intrathecal 50 ng),"Cox-2 mRNA levels in rat lumbar DRG neurons ([2]; intrathecal 1 and 10 ng, four hours after treatment)",upregulation of Cox-2 mRNA in the spinal cord ([2]; intravenous 1 μg),Cox-2 mRNA and protein levels in cultured DRG neurons [3],upregulation of central PGE2 levels [4],"central PGE2 levels ([4]; p<0.005, n=6)",phosphorylation of p38 and ERK in DRG cell cultures [5],"heat hyperalgesia and mechanical allodynia ([6]; 1 μg intrathecal 24 hours after CFA, tested at 30 minutes)","mechanical allodynia ([6]; 1 μg intrathecal 24 hours after CFA, tested at 6 hours)","heat hyperalgesia ([6]; 1 μg intrathecal 24 hours after CFA, tested at 24 hours)","heat withdrawal latency [6, 9]","mechanical withdrawal threshold [6, 9]",CFA-induced NK-1 increase in the dorsal horn (Western blot) [7],number of prodynorphin mRNA labeled neurons in the deep laminae [8]
"IL-1β: cytokine administered intravenously, intrathecally or to cultures",increased,20 fold,30 fold,substantially upregulated,four,increased significantly,50 fold,1204 ± 360 pg/mL,lead to phosphorylation of p38 and ERK,,,,,,,
N#CC(=C(/N)Sc1ccccc1N)/C(C#N)=C(\N)Sc1ccccc1N [U0126],,,,,,,,,,Neither heat hyperalgesia nor mechanical allodynia was significantly affected,decreased,decreased,113 % of vehicle control,108 % of the vehicle control,inhibited,without affecting

# Source: US20080026003A1, “Methods for inhibiting pain” (The General Hospital Corporation, priority 2000, published 2008)
